The values that follow come from patent US5245034A, “Compound having vessel smooth muscle relaxation activity” (Hidaka; Kiroyoshi, priority 1988, dated 1993).

Counter-ions that a name gives are not always drawn.

The first assay has as its system superior mesenteric artery (contracted by potassium chloride). The assay is described as follows: Vessel Smooth Muscle Relaxation Action (V.R.). The format is cell-based, rabbit. The conditions noted are these: Oryctolagus cuniculus; concentration relaxing KCl-contracted strain to 50%; cumulative administration; read-out: V.R. (ED50). From the text: The specimen was suspended by loading a strain in Krebs-Henseleit solution through which an oxygen gas containing 5% carbon dioxide was bubbled. The specimen was contracted by adding potassium chloride to maintain a predetermined strain. Thereafter, a test compound was cumulatively administrated.
Regarding `Cc1ccc(COC2CCN(CC(Cc3ccc(OS(=O)(=O)c4cccc5cnccc45)cc3)NS(=O)(=O)c3cccc4cnccc34)CC2)cc1` (centres unmarked) [Example 84], the EC50 came out at 43 µM. On the same count and under the same terms, as for `CN(C(Cc1ccc(O)cc1)CN1CCC(NCc2ccccc2)CC1)S(=O)(=O)c1cccc2cnccc12` (centres unmarked) [Example 98, N-{2-[4-(N-benzylamino)piperidino]-1-(p-hydroxybenzyl)ethyl}-N-methyl-5-isoquinolinesulfonamide], the figure is 22 µM; as for `CN(C(Cc1ccc(O)cc1)CN1CCC(O)CC1)S(=O)(=O)c1cccc2cnccc12` (centres unmarked) [Example 100], 95 µM.

Take `COc1ccc(CC(CN2CCC(O)CC2)N(C)S(=O)(=O)c2cccc3cnccc23)cc1` (centres unmarked) [Example 101]: the EC50 turned out to be 29 µM.

Consider `CC(=O)Oc1ccc(CC(CN2CCC(OC(C)=O)CC2)N(C)S(=O)(=O)c2cccc3cnccc23)cc1` (centres unmarked) [Example 102, N-[1-(P-Acetoxybenzyl)-2-(4-Acetoxypiperidino)Ethyl]-N-Methyl-5-Isoquinolinesulfonamide], for which the EC50 was determined as 24 µM. Same read-out and setting: as for `O=C(OCc1ccccc1)N1CCCN(CC(Cc2ccc(O)cc2)NS(=O)(=O)c2cccc3cnccc23)CC1` (centres unmarked) [Example 116, N-{2-(4-benzyloxycarbonylhomopiperazinyl)-1-(p-hydroxybenzyl)ethyl}-5-isoquinolinesulfonamide], the figure is 1.5 µM; as for `COc1ccc(CC(NS(=O)(=O)c2cccc3cnccc23)C(=O)N2CCCN(C(=O)Cc3ccccc3)CC2)cc1` (centres unmarked) [Example 120, 1-[N-(5-Isoquinolinesulfonyl)-O-Methyl]Tyrosyl-4-Phenylacetylhomopiperazine], 19 ± 3 µM; as for `O=C([C@H](Cc1ccc(O)cc1)NS(=O)(=O)c1cccc2cnccc12)N1CCCN(CCCc2ccccc2)CC1` [Example 124, 1-[N-(5-Isoquinolinesulfonyl)Tyrosyl]-4-(3-Phenylpropyl)Homopiperazine], 11 µM. The same measure, in the same setting: then `COc1ccc(N2CCN(CC(Cc3ccc(N4C(=O)c5ccccc5C4=O)cc3)NS(=O)(=O)c3cccc4cnccc34)CC2)cc1` (centres unmarked) [Example 125, N-{2-[4-(P-Methoxyphenyl)Piperazinyl]-1-(P-Phthalimidebenzyl)ethyl}-5-isoquinolinesulfonamide], with 9.2 µM; and `COc1ccc(N2CCN(CC(Cc3ccc(N)cc3)N(C)S(=O)(=O)c3cccc4cnccc34)CC2)cc1` (centres unmarked) [Example 128, N-{1-(p-aminobenzyl)-2-[4-(p-methoxyphenyl)piperazinyl]ethyl}-N-methyl-5-isoquinolinesulfonamide], with 1.8 µM; and `COc1ccc(N2CCN(CC(Cc3ccc(NS(=O)(=O)c4cccc5cnccc45)cc3)N(C)S(=O)(=O)c3cccc4cnccc34)CC2)cc1` (centres unmarked) [Example 129, N-{1-[p-(5-isoquinolinesulfonylaminobenzyl)]-2-[4-(p-methoxyphenyl)piperazinyl]ethyl}-N-methyl-5-isoquinolinesulfonamide], with 0.82 µM. Still for that read-out and setting: as for `COc1ccc(N2CCN(CC(Cc3ccc(NS(=O)(=O)c4cccc5cnccc45)cc3)NS(=O)(=O)c3cccc4cnccc34)CC2)cc1` (centres unmarked) [Example 130, N-{1-[p-(5-isoquinolinesulfonylaminobenzyl)]-2-[4-(p-methoxyphenyl]piperazinyl]ethyl}-5-isoquinolinesulfonamide], the figure is 13 µM; as for `COc1ccc(N2CCN(CC(Cc3ccc(N(C)S(=O)(=O)c4cccc5cnccc45)cc3)N(C)S(=O)(=O)c3cccc4cnccc34)CC2)cc1` (centres unmarked) [Example 131, N-[[1-{P-[N-5-Isoquinolinesulfonyl)-N-(Methylamino)Benzyl]}-2-[4-(P-Methoxyphenylpiperazinyl]Ethyl]]-N-Methyl-5-Isoquinolinesulfonamide], 1.5 µM.

With `CN(c1ccccc1NCC=Cc1cccnc1)S(=O)(=O)c1cccc2cnccc12` [Example 146, N-{2-[3-(3-pyridyl)allylamino)phenyl}-N-methyl-5-isoquinolinesulfonamide], the EC50 came to 2.8 µM.

With `CC(C=Cc1ccc2c(c1)OCO2)NCCNS(=O)(=O)c1cccc2cnccc12` (centres unmarked) [Example 161], the EC50 turned out to be 4.7 µM. Same read-out and setting: then `CC(C=Cc1ccccn1)NCCNS(=O)(=O)c1cccc2cnccc12` (centres unmarked) [Example 162, N-{2-[1-Methyl-3-(2-Pyridyl)-2-Propenylamino]Ethyl}-5-Isoquinolinesulfonamide], with 35 µM. The same measure, in the same setting: then `CC(C=Cc1ccncc1)NCCNS(=O)(=O)c1cccc2cnccc12` (centres unmarked) [Example 163, N-{2-[1-Methyl-3-(4-Pyridyl)-2-Propenylamino]ethyl}-5-Isoquinolinesulfonylamide], with 31 µM. Same read-out and setting: then `CC(C=Cc1cccs1)NCCNS(=O)(=O)c1cccc2cnccc12` (centres unmarked) [Example 164, N-{2-[1-Methyl-3-(2-Thienyl)-2-Procenylamino]ethyl}-5-Isoquinolinesulfonamide], with 4.1 µM; and `CC(C=Cc1ccco1)NCCNS(=O)(=O)c1cccc2cnccc12` (centres unmarked) [Example 165, N-{2-[3-(2-Furyl)-1-Methyl-2-Propenylamino]Ethyl}-5-Isoquinolinesulfonamide], with 11 µM; and `COc1ccc(C=CC(C)NCCNS(=O)(=O)c2cccc3cnccc23)cc1` (stereo not drawn) [Example 169, N-2-(4-Methoxy-α-Methylcinnamylamino)ethyll-5-Isoquinolinesulfonamide], with 4.6 µM. Regarding `CC(C=Cc1ccc(O)cc1)NCCNS(=O)(=O)c1cccc2cnccc12` (centres unmarked) [Example 170], the EC50 stood at 5.2 µM. Regarding `CC(C=Cc1ccccc1)NCCCNS(=O)(=O)c1cccc2cnccc12` (stereo not drawn) [Example 171, N-[3-(α-Methylcinnamylamino)Propyl]-5-Isoquinolinesulfonamide], the EC50 was 5.4 µM. In the case of `CN(C)c1ccc(C=CCNCCNS(=O)(=O)c2cccc3cnccc23)cc1` [Example 174], the EC50 is 11 µM. On the same count and under the same terms, as for `COCCOCOc1ccc(C=CCNCCNS(=O)(=O)c2cccc3cnccc23)cc1` [Example 182, N-{2-[4-(2-Methoxyethoxy)Methoxycinnamylamino]Ethyl}-5-Isoquinolinesulfonamide], the figure is 17 µM.

For `O=S(=O)(NCCNCC=Cc1ccc(O)cc1)c1cccc2cnccc12` [Example 183, N-[2-(4-Hydroxycinnamylamino)ethyl]-5-Isoquinolinesulfonamide], the EC50 is 2.8 µM. The same measure, in the same setting: then `COc1cc(C=CCNCCNS(=O)(=O)c2cccc3cnccc23)cc(OC)c1OC` [Example 185, N-[2-(3,4,5-Trimethoxycinnamylamino)ethyl]-5-Isoquinolinesulfonamide], with 0.21 µM; and `O=S(=O)(NCCCNCC=Cc1ccccc1)c1cccc2cnccc12` [Example 188, N-(3-Cinnamylaminopropyl)-5-Isoquinolinesulfonamide], with 4 µM. Take `O=S(=O)(NCCN(CC#Cc1ccc(Cl)cc1)CC#Cc1ccc(Cl)cc1)c1cccc2cnccc12` [Example 189-II, N-{2-[Bis-(3-((4-Chlorophenyl))-2-Propynyl)Amino]Ethyl}-5-Isoquinolinesulfonamide]: the EC50 is 0.2 µM.

Turning to `CN(CC=Cc1ccc(Cl)cc1)CCNS(=O)(=O)c1cccc2cnccc12` [Example 190, N-[2-(4-Chloro-N-Methylcinnamylamino)ethyl]-5-Isoquinolinesulfonamide], the EC50 amounted to 0.19 µM. For the molecule `O=S(=O)(NCCNCC=Cc1ccccc1)c1cccc2cnccc12` [Example 201, N-(2-Cinnamylaminoethyl)-5-Isoquinolinesulfonamide.1/2 Fumarate], the EC50 is 3.2 µM. For `CC(C=Cc1ccccc1)NCCNS(=O)(=O)c1cccc2cnccc12` (stereo not drawn) [Example 202, N-[2-(α-Methylcinnamylamino)Ethyl]-5-Isoquinolinesulfonamide 1/2 Fumarate], the EC50 stood at 1.3 µM.

The target in a further assay is Calmodulin-Dependent Phosphodiesterase (Ca^2+ PDE). The assay is described as follows: Calmodulin-Dependent Phosphodiesterase Inhibition (Ca^2+ PDE). The format is biochemical, rat. The conditions noted are these: [^3 H]-cGMP, 30° C. The method, then:
Phosphodiesterase (Ca^2+ PDE)Ca^2+ PDE was partially purified from the brain of rat by DEAE-Sepharose column chromatography.
Calmodulin was purified from the calf brain using a calmodulin inhibitor W-7 affinity column.
A reaction mixture contained 20 μl of 500 mM Tris-HCl (pH 8.0), 20 μl of 50 mM MgCl2, 20 μl of 2 mM CaCl2 (or 10 mM EGTA), 20 μl of 1 mg/ml bovine serum albumin, PDE, […] of calmodulin, test sample and distilled water to make total volume 200 μl. To the mixture was added 20 μl of 4 μM [^3 H]-cGMP (2.5 μCi/ml), the mixture was incubated at 30° C. for 15 minutes, and then heated in boiling water for 3 to 5 minutes to terminate the reaction, and cooled in ice-water bath. 20 μg of 5'-nucleotidase (Snake venum) was added to the mixture, and the mixture was again incubated at 30° C. for 10 minutes. After addition of about 2 ml of water, the sample was applied to a cation exchange resin column (Biorad AG.AG50W-X4 to adsorbe the [^3 H]-guanosine and additionally about 2 ml of washing water for the sample was added to the column. The column was washed with about 20 ml of water, and the adsorbed [^3 H]-guanosine was eluted with 3 ml of 3N NH4 OH, and the elute was directly received by a vial. After an addition of 10 ml of an emulsified scintillation solution (ACS-II, AMERSHAM) the radio activity was measured by a scintillation counter LS7500 (Beckmann). The enzyme activity in the presence of calmodulin was taken as […], and a concentration of a test compound in μM which provides a 50% inhibition was expressed as IC50.
As to `O=C(C(Cc1ccc([N+](=O)[O-])cc1)NS(=O)(=O)c1cccc2cnccc12)N1CCN(c2ccccc2)CC1` (centres unmarked) [Example 11, 1-[N-(5-Isoquinolinesulfonyl)-P-Nitrophenylalanyl]-4-Phenylpiperazine], the 50% inhibitory concentration (IC50) – broadly, the concentration at which inhibition is half-maximal – was found to be 59 µM. On the same count and under the same terms, then `Cc1ccc(S(=O)(=O)Nc2ccc(CC(NS(=O)(=O)c3cccc4cnccc34)C(=O)N3CCN(c4ccccc4)CC3)cc2)cc1` (centres unmarked) [Example 15, 1-[N-(5-Isoquinolinesulfonyl)-P-(P-Toluenesulfonylamino)Phenylalanyl]-4-Phenylpiperazine], with 43 µM. On the same count and under the same terms, then `Cc1ccc(COC2CCN(CC(Cc3ccc(O)cc3)NS(=O)(=O)c3cccc4cnccc34)CC2)cc1` (centres unmarked) [Example 85, N-{1-(P-Hydroxybenzyl)-2-{4-(P-Methylbenzyloxy)Piperidino]Ethyl}-Isoquinolinesulfonamide], with 75 µM; and `CN(C(Cc1ccc(OS(=O)(=O)c2cccc3cnccc23)cc1)CN1CCC(c2ccccc2)CC1)S(=O)(=O)c1cccc2cnccc12` (centres unmarked) [Example 92, N-{1-[p-(5-isoquinolinesulfonyloxy)benzyl]-2-(4-phenylpiperidino)ethyl}-N-methyl-5-isoquinolinesulfonamide], with 63 µM.
